In US20180186753A1 (published 2018):
Values joined by “and” are separate entries in the source; they are usually repeats but may differ in a detail not shown here. Identical values can stand only once.

| Structure (SMILES) | melting point |
| --- | --- |
| CC(=O)SCCC(=O)Nc1c[nH]nc1Cl | 140 to 143 °C |
| CCN(C(=O)CCS)c1cn(-c2cccnc2)nc1Cl | 70 to 73 °C |
| C=CC(=O)N(CC)c1c[nH]nc1Cl | 156 to 160 °C |

More lines, now with the values ahead:

| melting point | Structure (SMILES) |
| --- | --- |
| 98 to 99 °C | CCN(C(=O)CCSC(C)=O)c1c[nH]nc1Cl |
| 163 to 166 °C and 168 to 171 °C | CC(=O)SCCC(=O)Nc1cn(-c2cccnc2)nc1Cl |
| 182 °C (dec.) | C=CC(=O)Nc1c[nH]nc1Cl |
| 148 to 153 °C | C=CC(=O)Nc1cn(-c2cccnc2)nc1Cl |
